# From the supplement of paper PMC10307832
# Legend:
# Experiment in all cases: relative viability (nuclei count vs DMSO), 5 days (fraction); higher = more cells survive
# Gemcitabine + Pictilisib = compound: Nc1ccn([C@@H]2O[C@H](CO)[C@@H](O)C2(F)F)c(=O)n1 [Gemcitabine] + CS(=O)(=O)N1CCN(Cc2cc3nc(-c4cccc5[nH]ncc45)nc(N4CCOCC4)c3s2)CC1 [Pictilisib] (partner 1 µM)
# Summary of the method: (§1)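 Lung cancer cell lines in 1536-well plates were dosed by pin tool the day after seeding, either with one drug alone or with a fixed anchor-drug dose plus five library-drug doses (not always all listed) in √10 steps. After 5 days, cells were fixed and their nuclei stained in one step (final 0.05% Triton X-100, 1% formaldehyde, 1 ug/ml Hoechst), then counted on 4× images. Relative viability is the nuclei count in treated wells divided by that in vehicle wells. Values are medians of duplicate plates.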
# Gemcitabine + Decitabine = compound: Nc1ccn([C@@H]2O[C@H](CO)[C@@H](O)C2(F)F)c(=O)n1 [Gemcitabine] + Nc1ncn([C@H]2C[C@H](O)[C@@H](CO)O2)c(=O)n1 [Decitabine] (partner 2 µM)
# Summary of the method: as §1
# Gemcitabine + Crizotinib = compound: Nc1ccn([C@@H]2O[C@H](CO)[C@@H](O)C2(F)F)c(=O)n1 [Gemcitabine] + C[C@@H](Oc1cc(-c2cnn(C3CCNCC3)c2)cnc1N)c1c(Cl)ccc(F)c1Cl [Crizotinib] (partner 1 µM)
# Summary of the method: as §1
# Gemcitabine + Alpelisib = compound: Nc1ccn([C@@H]2O[C@H](CO)[C@@H](O)C2(F)F)c(=O)n1 [Gemcitabine] + Cc1nc(NC(=O)N2CCC[C@H]2C(N)=O)sc1-c1ccnc(C(C)(C)C(F)(F)F)c1 [Alpelisib] (partner 2 µM)
# Summary of the method: as §1
# Gemcitabine + Phenformin = compound: Nc1ccn([C@@H]2O[C@H](CO)[C@@H](O)C2(F)F)c(=O)n1 [Gemcitabine] + N=C(N)NC(=N)NCCc1ccccc1 [Phenformin] (partner 250 µM)
# Summary of the method: as §1
# Gemcitabine + Lapatinib = compound: Nc1ccn([C@@H]2O[C@H](CO)[C@@H](O)C2(F)F)c(=O)n1 [Gemcitabine] + CS(=O)(=O)CCNCc1ccc(-c2ccc3ncnc(Nc4ccc(OCc5cccc(F)c5)c(Cl)c4)c3c2)o1 [Lapatinib] (partner 2 µM)
# Summary of the method: as §1
# Gemcitabine + Olaparib = compound: Nc1ccn([C@@H]2O[C@H](CO)[C@@H](O)C2(F)F)c(=O)n1 [Gemcitabine] + O=C(c1cc(Cc2n[nH]c(=O)c3ccccc23)ccc1F)N1CCN(C(=O)C2CC2)CC1 [Olaparib] (partner 8 µM)
# Summary of the method: as §1
# Gemcitabine + Navitoclax = compound: Nc1ccn([C@@H]2O[C@H](CO)[C@@H](O)C2(F)F)c(=O)n1 [Gemcitabine] + CC1(C)CCC(c2ccc(Cl)cc2)=C(CN2CCN(c3ccc(C(=O)NS(=O)(=O)c4ccc(N[C@H](CCN5CCOCC5)CSc5ccccc5)c(S(=O)(=O)C(F)(F)F)c4)cc3)CC2)C1 [Navitoclax] (partner 0.5 µM)
# Summary of the method: as §1
# Gemcitabine + Foretinib = compound: Nc1ccn([C@@H]2O[C@H](CO)[C@@H](O)C2(F)F)c(=O)n1 [Gemcitabine] + COc1cc2c(Oc3ccc(NC(=O)C4(C(=O)Nc5ccc(F)cc5)CC4)cc3F)ccnc2cc1OCCCN1CCOCC1 [Foretinib] (partner 0.25 µM)
# Summary of the method: as §1
# Gemcitabine + Linsitinib = compound: Nc1ccn([C@@H]2O[C@H](CO)[C@@H](O)C2(F)F)c(=O)n1 [Gemcitabine] + C[C@]1(O)C[C@@H](c2nc(-c3ccc4ccc(-c5ccccc5)nc4c3)c3c(N)nccn32)C1 [Linsitinib] (partner 1 µM)
# Summary of the method: as §1
# Gemcitabine = compound: Nc1ccn([C@@H]2O[C@H](CO)[C@@H](O)C2(F)F)c(=O)n1 [Gemcitabine]
# Summary of the method: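 Lung cancer cell lines in 1536-well plates were exposed by pinning to five library-drug doses (not always all listed) √10 apart, following an overnight hold at 37 °C. MetaXpress counted Hoechst-stained nuclei from 4× images taken after 5 days without medium change. Viability is the median ratio of treated-well to vehicle-well nuclei across plates. Plates required control CV below 25% and at least one doubling.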
# Gemcitabine + Bortezomib = compound: Nc1ccn([C@@H]2O[C@H](CO)[C@@H](O)C2(F)F)c(=O)n1 [Gemcitabine] + CC(C)C[C@H](NC(=O)[C@H](Cc1ccccc1)NC(=O)c1cnccn1)B(O)O [Bortezomib] (partner 0.002 µM)
# Summary of the method: as §1
cell line,measurement,setting,value
A549,relative viability,Gemcitabine + Pictilisib; first compound 0.001 µM,0.74
same,relative viability,Gemcitabine + Pictilisib; first compound 0.003162 µM,0.367
same,relative viability,Gemcitabine + Pictilisib; first compound 0.01 µM,0.0384
same,relative viability,Gemcitabine + Pictilisib; first compound 0.03162 µM,0.0238
same,relative viability,Gemcitabine + Pictilisib; first compound 0.1 µM,0.0155
same,relative viability,Gemcitabine + Decitabine; first compound 0.001 µM,0.292
same,relative viability,Gemcitabine + Decitabine; first compound 0.003162 µM,0.274
same,relative viability,Gemcitabine + Decitabine; first compound 0.01 µM,0.0559
same,relative viability,Gemcitabine + Decitabine; first compound 0.03162 µM,0.0266
same,relative viability,Gemcitabine + Decitabine; first compound 0.1 µM,0.0227
same,relative viability,Gemcitabine + Crizotinib; first compound 0.001 µM,0.858
same,relative viability,Gemcitabine + Crizotinib; first compound 0.003162 µM,0.377
same,relative viability,Gemcitabine + Crizotinib; first compound 0.01 µM,0.229
same,relative viability,Gemcitabine + Crizotinib; first compound 0.03162 µM,0.0341
same,relative viability,Gemcitabine + Crizotinib; first compound 0.1 µM,0.0206
same,relative viability,Gemcitabine + Alpelisib; first compound 0.001 µM,0.919
same,relative viability,Gemcitabine + Alpelisib; first compound 0.003162 µM,0.276
same,relative viability,Gemcitabine + Alpelisib; first compound 0.01 µM,0.0341
same,relative viability,Gemcitabine + Alpelisib; first compound 0.03162 µM,0.0189
same,relative viability,Gemcitabine + Alpelisib; first compound 0.1 µM,0.0253
same,relative viability,Gemcitabine + Phenformin; first compound 0.001 µM,0.158
same,relative viability,Gemcitabine + Phenformin; first compound 0.003162 µM,0.0726
same,relative viability,Gemcitabine + Phenformin; first compound 0.01 µM,0.0184
same,relative viability,Gemcitabine + Phenformin; first compound 0.03162 µM,0.0201
same,relative viability,Gemcitabine + Phenformin; first compound 0.1 µM,0.0216
same,relative viability,Gemcitabine + Lapatinib; first compound 0.001 µM,0.967
same,relative viability,Gemcitabine + Lapatinib; first compound 0.003162 µM,0.747
same,relative viability,Gemcitabine + Lapatinib; first compound 0.01 µM,0.249
same,relative viability,Gemcitabine + Lapatinib; first compound 0.03162 µM,0.0488
same,relative viability,Gemcitabine + Lapatinib; first compound 0.1 µM,0.033
same,relative viability,Gemcitabine + Olaparib; first compound 0.001 µM,0.296
same,relative viability,Gemcitabine + Olaparib; first compound 0.003162 µM,0.279
same,relative viability,Gemcitabine + Olaparib; first compound 0.01 µM,0.0098
same,relative viability,Gemcitabine + Olaparib; first compound 0.03162 µM,0.0228
same,relative viability,Gemcitabine + Olaparib; first compound 0.1 µM,0.014
same,relative viability,Gemcitabine + Navitoclax; first compound 0.001 µM,1.21
same,relative viability,Gemcitabine + Navitoclax; first compound 0.003162 µM,1.1
same,relative viability,Gemcitabine + Navitoclax; first compound 0.01 µM,0.0375
same,relative viability,Gemcitabine + Navitoclax; first compound 0.03162 µM,0.0126
same,relative viability,Gemcitabine + Navitoclax; first compound 0.1 µM,0.0108
same,relative viability,Gemcitabine + Foretinib; first compound 0.001 µM,0.998
same,relative viability,Gemcitabine + Foretinib; first compound 0.003162 µM,0.901
same,relative viability,Gemcitabine + Foretinib; first compound 0.01 µM,0.616
same,relative viability,Gemcitabine + Foretinib; first compound 0.03162 µM,0.0177
same,relative viability,Gemcitabine + Foretinib; first compound 0.1 µM,0.0104
same,relative viability,Gemcitabine + Linsitinib; first compound 0.001 µM,0.705
same,relative viability,Gemcitabine + Linsitinib; first compound 0.003162 µM,0.356
same,relative viability,Gemcitabine + Linsitinib; first compound 0.01 µM,0.0342
same,relative viability,Gemcitabine + Linsitinib; first compound 0.03162 µM,0.0143
same,relative viability,Gemcitabine + Linsitinib; first compound 0.1 µM,0.0157
same,relative viability,Gemcitabine; 0.001 µM,1.03
same,relative viability,Gemcitabine; 0.003162 µM,0.894
same,relative viability,Gemcitabine; 0.01 µM,0.0734
same,relative viability,Gemcitabine; 0.03162 µM,0.0244
same,relative viability,Gemcitabine; 0.1 µM,0.0209
EBC-1,relative viability,Gemcitabine + Pictilisib; first compound 0.001 µM,0.355
same,relative viability,Gemcitabine + Pictilisib; first compound 0.003162 µM,0.237
same,relative viability,Gemcitabine + Pictilisib; first compound 0.01 µM,0.15
same,relative viability,Gemcitabine + Pictilisib; first compound 0.03162 µM,0.151
same,relative viability,Gemcitabine + Pictilisib; first compound 0.1 µM,0.143
same,relative viability,Gemcitabine + Crizotinib; first compound 0.001 µM,0.192
same,relative viability,Gemcitabine + Crizotinib; first compound 0.003162 µM,0.166
same,relative viability,Gemcitabine + Crizotinib; first compound 0.01 µM,0.161
same,relative viability,Gemcitabine + Crizotinib; first compound 0.03162 µM,0.134
same,relative viability,Gemcitabine + Crizotinib; first compound 0.1 µM,0.159
same,relative viability,Gemcitabine + Alpelisib; first compound 0.001 µM,0.589
same,relative viability,Gemcitabine + Alpelisib; first compound 0.003162 µM,0.21
same,relative viability,Gemcitabine + Alpelisib; first compound 0.01 µM,0.168
same,relative viability,Gemcitabine + Alpelisib; first compound 0.03162 µM,0.187
same,relative viability,Gemcitabine + Alpelisib; first compound 0.1 µM,0.165
same,relative viability,Gemcitabine + Lapatinib; first compound 0.001 µM,0.15
same,relative viability,Gemcitabine + Lapatinib; first compound 0.003162 µM,0.187
same,relative viability,Gemcitabine + Lapatinib; first compound 0.01 µM,0.176
same,relative viability,Gemcitabine + Lapatinib; first compound 0.03162 µM,0.181
same,relative viability,Gemcitabine + Lapatinib; first compound 0.1 µM,0.167
same,relative viability,Gemcitabine + Bortezomib; first compound 0.001 µM,0.53
same,relative viability,Gemcitabine + Bortezomib; first compound 0.003162 µM,0.307
same,relative viability,Gemcitabine + Bortezomib; first compound 0.01 µM,0.15
same,relative viability,Gemcitabine + Bortezomib; first compound 0.03162 µM,0.198
same,relative viability,Gemcitabine + Bortezomib; first compound 0.1 µM,0.164
same,relative viability,Gemcitabine + Olaparib; first compound 0.001 µM,0.73
same,relative viability,Gemcitabine + Olaparib; first compound 0.003162 µM,0.195
same,relative viability,Gemcitabine + Olaparib; first compound 0.01 µM,0.141
same,relative viability,Gemcitabine + Olaparib; first compound 0.03162 µM,0.116
same,relative viability,Gemcitabine + Olaparib; first compound 0.1 µM,0.107
same,relative viability,Gemcitabine + Navitoclax; first compound 0.001 µM,0.268
same,relative viability,Gemcitabine + Navitoclax; first compound 0.003162 µM,0.187
same,relative viability,Gemcitabine + Navitoclax; first compound 0.01 µM,0.136
same,relative viability,Gemcitabine + Navitoclax; first compound 0.03162 µM,0.19
same,relative viability,Gemcitabine + Navitoclax; first compound 0.1 µM,0.126
same,relative viability,Gemcitabine + Foretinib; first compound 0.001 µM,0.0943
same,relative viability,Gemcitabine + Foretinib; first compound 0.003162 µM,0.0886
same,relative viability,Gemcitabine + Foretinib; first compound 0.01 µM,0.0845
same,relative viability,Gemcitabine + Foretinib; first compound 0.03162 µM,0.0844
same,relative viability,Gemcitabine + Foretinib; first compound 0.1 µM,0.0813
same,relative viability,Gemcitabine + Linsitinib; first compound 0.001 µM,0.777
same,relative viability,Gemcitabine + Linsitinib; first compound 0.003162 µM,0.369
same,relative viability,Gemcitabine + Linsitinib; first compound 0.01 µM,0.142
same,relative viability,Gemcitabine + Linsitinib; first compound 0.03162 µM,0.0966
same,relative viability,Gemcitabine + Linsitinib; first compound 0.1 µM,0.115
same,relative viability,Gemcitabine; 0.001 µM,0.791
same,relative viability,Gemcitabine; 0.003162 µM,0.235
same,relative viability,Gemcitabine; 0.01 µM,0.174
same,relative viability,Gemcitabine; 0.03162 µM,0.138
same,relative viability,Gemcitabine; 0.1 µM,0.142
